Source: publication PMC8780785 (Molecules, 2022)
In brackets after ≈: the same amount, converted by molar mass.

Columns and labels:
[1] = Chemiluminescence assay (luminol, antioxidant); details: concentration reducing 50% of radicals
Protocol: Chemiluminescence Assay: The assay of the antioxidant properties of the tested dyes was based on the measurement of luminol chemiluminescence induced by hydroxyl radicals in the Fe^2+-EDTA-H2O2-luminol system. […] Afterwards, the samples were placed in a Berthold–Lumat LB 9506 luminometer, and the solutions of reagents were added automatically as follows: 1.5 mM Fe^2+-EDTA (100 µL) and 4.4 mM H2O2 (100 µL). The chemiluminescence was measured with (I1) or without (I0) the addition of the tested dye. The inhibitory rate (IR) was calculated according to the following equation: IR(%)=(1−I1/Io)×100 All analyses allowing determination of antioxidative properties were performed in triplicate in room temperature 22 ± 3 °C. […] Trolox was used as positive controls for each technique.

Vibrio fisheri = assay: Environmental toxicity, 81.9% Basic Test Microtox protocol; assay type: cell-based; details: 5 min
From the text: Toxicity was expressed as half maximal effective concentration (EC50) according to the 81.9% Basic Test Microtox protocol. All reagents and Vibrio […] bacterium were purchased from […]), the Polish representative of Modern Water Company (New Castle, DE, USA).

[2] = Antioxidative potential over the three methods (ABTS, DPPH, luminol); details: range depending on the method used
Protocol: Chemiluminescence Assay: The assay of the antioxidant properties of the tested dyes was based on the measurement of luminol chemiluminescence induced by hydroxyl radicals in the Fe^2+-EDTA-H2O2-luminol system. […] Afterwards, the samples were placed in a Berthold–Lumat LB 9506 luminometer, and the solutions of reagents were added automatically as follows: 1.5 mM Fe^2+-EDTA (100 µL) and 4.4 mM H2O2 (100 µL). The chemiluminescence was measured with (I1) or without (I0) the addition of the tested dye. The inhibitory rate (IR) was calculated according to the following equation: IR(%)=(1−I1/Io)×100 DPPH assay: […] […] The change in absorbance caused by the tested dyes (XP) and ultrapure water as a negative control (XC) was monitored at 515 nm using a multiplate reader (Spark, Tecan, Austria). Simultaneously, the absorbance of the dye at a wavelength of 515 nm was investigated as a control of the dye–colour correction (XD). The radical reduction rate (DR) was calculated according to the following equation: DR(%)=(XC−(XP−XD)/XC)×100% ABTS assay: In this method, the ability of the tested dye to reduce the dark green ABTS radical cation (ABTS^●+) was evaluated. […] Next, the ABTS^●+ solution was diluted with PBS to an absorbance of 0.7 at 734 nm measured using a Tecan plate reader (Spark, Tecan, Austria). […]

[3] = system: human normal colon fibroblast cell line CCD-18Co; assay: Cytotoxicity, MTT assay, fibroblasts; assay type: cell-based; details: 24 h, read-out: IC50 Fibroblasts MTT
Protocol: (§1) Cell cultures: The research was conducted on human normal colon epithelial cell line CCD-841 CoTr (ACCT, No. CRL-1807) and human normal colon fibroblast cell line CCD-18Co (ATCC, No. CRL-1459) obtained from the American Type Culture Collection (ATCC, Manassas, VA, USA). The cells were grown in a mixture of DMEM and RPMI 1640 media (1:1) containing 10% (v/v) of foetal bovine serum (FBS) and antibiotics (100 U/mL penicillin and 100 μg/mL streptomycin) and kept in standard conditions (at 37 °C in humidified atmosphere of 5% CO2). For the MTT and LDH tests, cells at the density of 1 × 10^5 cells /mL were seeded on 96-well plates. […] MTT assay: This method is used to determine cell viability and proliferation. […] Then, to stop the reaction and dissolve the formazan crystals, 100 µL of a 10 % SDS solution in 0.01 N HCL was added. The following day, the absorbance was determined spectrophotometrically at 570 nm using a microplate reader (Spark, Tecan, Austria). Results obtained from three independent experiments were reported as cell viability (%) calculated according to the formula: cell viability (%) = (100 − Abssample × Abscontrol^−1) × 100% All analyses were performed in triplicate and presented as mean ± SD. The IC50 value was calculated by nonlinear regression using a curve fitting program in GraphPad Prism 5.0.

DPPH assay (antioxidant) = details: concentration reducing 50% of radicals
Protocol: DPPH assay: […] Then, 100 µL of the tested dye was added to a 96-well plate containing 100 µL of a freshly prepared DPPH solution in 95% ethanol. […] The mixture was incubated at room temperature for 20 min. The change in absorbance caused by the tested dyes (XP) and ultrapure water as a negative control (XC) was monitored at 515 nm using a multiplate reader (Spark, Tecan, Austria). Simultaneously, the absorbance of the dye at a wavelength of 515 nm was investigated as a control of the dye–colour correction (XD). The radical reduction rate (DR) was calculated according to the following equation: DR(%)=(XC−(XP−XD)/XC)×100% All analyses allowing determination of antioxidative properties were performed in triplicate in room temperature 22 ± 3 °C. […] Trolox was used as positive controls for each technique.

[4] = system: human normal colon epithelial cell line CCD-841 CoTr; assay: Cytotoxicity, LDH assay, colon epithelial cells; assay type: cell-based; details: after 24 h
Protocol: (§2) Cell cultures: The research was conducted on human normal colon epithelial cell line CCD-841 CoTr (ACCT, No. CRL-1807) and human normal colon fibroblast cell line CCD-18Co (ATCC, No. CRL-1459) obtained from the American Type Culture Collection (ATCC, Manassas, VA, USA). The cells were grown in a mixture of DMEM and RPMI 1640 media (1:1) containing 10% (v/v) of foetal bovine serum (FBS) and antibiotics (100 U/mL penicillin and 100 μg/mL streptomycin) and kept in standard conditions (at 37 °C in humidified atmosphere of 5% CO2). For the MTT and LDH tests, cells at the density of 1 × 10^5 cells /mL were seeded on 96-well plates. […] Lactate dehydrogenase(LDH) assay: This assay measures lactate dehydrogenase (LDH) released to the medium by cells with a damaged plasma membrane. […] Absorbance was recorded on a microplate reader (Spark, Tecan, Austria) at 490 nm with a reference wavelength at 690 nm. Results obtained from three independent experiments were reported as cell viability (%) calculated according to the formula: cell viability (%) = (100 − Abssample × Abscontrol^−1) × 100% All analyses were performed in triplicate and presented as mean ± SD. The IC50 value was calculated by nonlinear regression using a curve fitting program in GraphPad Prism 5.0.

[5] = system: human normal colon fibroblast cell line CCD-18Co; assay: Cytotoxicity, LDH assay, fibroblasts; assay type: cell-based; details: after 24 h
Protocol: as §2

ABTS assay (antioxidant) = details: concentration reducing 50% of radicals
Protocol: ABTS assay: In this method, the ability of the tested dye to reduce the dark green ABTS radical cation (ABTS^●+) was evaluated. First, 5 mM phosphate buffer pH 7.4 (PBS) and 7.4 mM ABTS solution were prepared. During the ABTS solution preparation, ABTS was dissolved and ABTS^●+ was generated by reacting with K2S2O8 (2.4 mM final concentration) in a dark bottle at room temperature for 16–18 h. Next, the ABTS^●+ solution was diluted with PBS to an absorbance of 0.7 at 734 nm measured using a Tecan plate reader (Spark, Tecan, Austria). ABTS^●+ (990 µL) was added to the tested dye sample (10 µL) in a 96-well plate and incubated for 10 min at room temperature. The tested dye concentration was in the range from 0.01 to 1 mg/mL. Simultaneously, the negative control (XC) and the control of dye colour correction (XD) were incubated. The change in the absorbance of ABTS^●+ with the dye sample (XP) and controls were measured in the plate reader at 734 nm and the ABTS^●+ reduction rate (AR) was calculated according to the following equation: AR=(XC−(XP−XD)/XC)×100% All analyses allowing determination of antioxidative properties were performed in triplicate in room temperature 22 ± 3 °C. […] Trolox was used as positive controls for each technique.

[6] = system: S. epidermidis ATCC 14990; assay: MIC and MBC determination (CLSI protocol), S. epidermidis; assay type: cell-based; details: Staphylococcus epidermidis, ATCC14990, read-out: MBC S. epidermidis
Protocol: (§3) The stock solutions (10 mg/mL) of the tested substances were prepared in distilled water and afterwards diluted to the appropriate concentration in Mueller–Hinton Bullion. In each well of a 96-well plate, 300 µL of the mixture was inoculated with 10 µL of the bacterial culture (final density~10^2 cfu/mL). […] Then, 10 µL of the suspension from each well was transferred to a fresh sterile medium and incubated for another 24 h at 37 °C. The lack of turbidity indicated bactericidal activity of the investigated substances and the MBC value was thus determined.

[7] = Cytotoxicity regardless of assay method and cells used; assay type: cell-based; details: human; regardless of the toxicity assay method and the cells used; read-out: IC50 (cytotoxicity), lowest value
Protocol: For the MTT and LDH tests, cells at the density of 1 × 10^5 cells /mL were seeded on 96-well plates. After 24 h incubation, the medium was replaced with a fresh one with 2% of FBS supplemented with ANS or not (control).
MTT assay: This method is used to determine cell viability and proliferation. It is based on the measurement of the oxidoreductive activity of mitochondria with the yellow dye 3-(4,5-dimethylthiazo-2-yl)-2,5-diphenyl-tetrazolium bromide (MTT) which is metabolised in living cells to purple formazan crystals. After 24 h incubation with the examined compounds, 25 µL of MTT (5 mg/mL) was introduced onto each well and incubated for 3 h. Then, to stop the reaction and dissolve the formazan crystals, 100 µL of a 10 % SDS solution in 0.01 N HCL was added. The following day, the absorbance was determined spectrophotometrically at 570 nm using a microplate reader (Spark, Tecan, Austria).
Results obtained from three independent experiments were reported as cell viability (%) calculated according to the formula: cell viability (%) = (100 − Abssample × Abscontrol^−1) × 100% […]

[8] = system: human normal colon epithelial cell line CCD-841 CoTr; assay: Cytotoxicity, MTT assay, colon epithelial cells; assay type: cell-based; details: CCD-841, 24 h, read-out: IC50 Colon Epithelial Cells MTT
Protocol: as §1

[9] = Cyclic voltammetry of the ANS substrate; assay type: physicochemical; details: 1 mM substrate, 0.1 M sodium tartrate buffer pH 4.5
Protocol: All measurements were performed for the 1 mM substrate dissolved in 0.1 M sodium tartrate buffer at pH 4.5 in triplicate at room temperature 22 ± 3 °C. The potential was scanned with the scan speed of 50 mV/s from −400 to 1500 mV vs. Ag/AgCl/KClsat after holding the electrochemical system at the initial potential for 10 s.

laccase (LAC) = details: read-out: KM (Michaelis–Menten constant); 0.1 M sodium-tartrate buffer pH 4, 440 nm, Lineweaver–Burk
From the text: The reaction mixture was scanned to determine the λ max cha-racterizing the main reaction product od dye using a Cary 50 Bio spectrophotometer (Varian, Palo Alto, CA, USA).

S. aureus ATCC 25923 = assay: MIC and MBC determination (CLSI protocol), S. aureus; assay type: cell-based; details: Staphylococcus aureus, ATCC25923, read-out: MBC S. aureus
Protocol: as §3

O=S(=O)(O)c1cccc2cccc(Nc3ccccc3)c12 [ANS, 8-anilino-1-naphthalenesulfonic acid]
IC50 Luminol [1]: 6 µg/mL (≈ 20 µM)
EC50 (Vibrio fisheri): 19 µg/mL (≈ 63.5 µM)
IC50 values (antioxidative potential) [2]: 0.027 to 153 µg/mL
IC50 [3]: 295 µg/mL (≈ 985 µM)
IC50 DPPH (DPPH assay (antioxidant)): 153 µg/mL (≈ 511 µM)
IC50 [4]: 382 µg/mL (≈ 1280 µM)
IC50 [5]: 247 µg/mL (≈ 825 µM)
IC50 ABTS (ABTS assay (antioxidant)): 0.027 µg/mL (≈ 0.0902 µM)
MBC [6]: 400 µg/mL (≈ 1340 µM)
IC50 at 24 h [7]: ≥ 247 µg/mL
IC50 [8]: 322 µg/mL (≈ 1080 µM)
Eo vs. NHE (oxidation potential) [9]: 0.768 V
Km (laccase (LAC)): 435 µM
MBC (S. aureus ATCC 25923): 400 µg/mL (≈ 1340 µM)
